Test results published in publication PMC7180728, “Novel Anthraquinone Compounds Inhibit Colon Cancer Cell Proliferation via the Reactive Oxygen Species/JNK Pathway” (Molecules, 2020).
Values after ≈ are worked out from the molar mass of the structure shown.

Experiments:
Bcl-2, Bcl-xL and Bax = test: Western blot, Bcl-2 family proteins; type: cell-based, human; details: HCT116, western blot
Description: In addition, the expression of apoptosis-related proteins after 8a treatment was detected by western blot. Previous studies have shown that the Bcl-2 protein family is one of the most interesting oncogene-related proteins in programmed cell death. Therefore, we analyzed the levels of Bcl-2, Bcl-xL and Bax after 24 h of treatment with different concentrations (0, 10, 20, and 40 μg/mL) 8a. […] Moreover, the phosphorylation levels of Bcl-2 and Bcl-xL increased with increasing 8a concentration.
The expression of signaling pathway-related proteins was detected by western blot analysis. Cell (1 × 10^6) were plated in 90-mm dishes and treated with 8a for 24 h. The cells were treated with NAC in the same way as in step 4.7. Resuspend the cells in Buffer A (1 mM EDTA, 1 mM PMSF, 0.28 μg/mL apotinin, 50 μg/mL leupeptin, 7 μg/mL pepstain A) and transferred to a 1 mL glass homogenizer and pull up and down 30 times in an ice bath. Cells were collected and centrifuged (1000 g × 10 min, 4 °C). The obtained supernatant and precipitate were the crude cytoplasm and mitochondria, respectively. The cytosolic fraction was transferred to an ultra-ion tube and centrifuged (100,000g × 1 hr, 4 °C), and the resulting supernatant was the purified cytosolic fraction. The mitochondrial pellet was resuspended in Buffer B (1mM EGTA, 1mM PMSF, 0.28 μg/mL apotinin, 50 μg/mL leupeptin, 7 μg/mL pepstain A), centrifuged (10,000g × 10 min, 4 °C), and repeated 3 times. The mitochondria pellet was lysed in cell lysate buffer (1% NP-40, 2 μg/mL aprotinin, 2 μg/mL leupeptin, 1mM EDTA, 1mM Na vanadate). Protein concentrations in the supernatant were determined by using a Minbio BCA protein assay kit. Protein were separated by SDS-PAGE and transferred to a PVDF membrane. The membrane was blocked, and incubated with primary detection antibodies overnight at 4 °C. After washing three times with TBS-T, the membranes were incubated with the secondary detection antibody. […]

EC9708 = test: MTT cell proliferation assay, EC9706 (Table 1: EC9708); type: cell-based; details: Homo sapiens, EC9708 esophageal cancer, 48 h
Description: (§1) The effects of the synthesized amide anthraquinone derivatives on the proliferative activity of eight human cancerous cell lines (EC9706, MCF-7, SGC-7901, HepG2, QBC939, HeLa, HCT116 and SW480) in addition to two normal human cell lines (colorectal FHC and liver HL7702) were evaluated using the standard MTT assay.
(§2) The human esophageal cancer cell line EC9706 was obtained from Cancer Hospital and Institute by Prof. Ming Rong Wang, Chinese Academy Medical of Sciences. The human colorectal carcinoma cell lines HCT116 and SW480, hepatoma cell line HepG2, cervical carcinoma cell line HeLa, breast cancer cell line MCF-7, gastric cancer cell line SGC-7901, cholangiocarcinoma cell line QBC939, normal fetal colon cell line FHC and liver cell line HL-7702 were obtained from the Cell Bank of the Shanghai Chinese Academy of Sciences. All cells were cultured in RPMI 1640 medium containing 100 U/mL penicillin and streptomycin and 10% fetal bovine serum and maintained at 37°C under a 5% CO2 atmosphere.
(§3) We analyzed the inhibitory effects of eight anthraquinone-amino acid derivatives on the proliferation of eight tumor cell lines and two normal cell lines in vitro using MTT assays. Cells were added to a 96-well plate with (5,000 cells per well in 100 µL RPMI-1640 medium). Cells were treated with different concentrations (10–100 μg/mL) of 8a–8h for 48 h and then incubated with 20 μL MTT (5 mg/mL) for another 4 h at 37°C. DMSO (150 μL) was then added to each well to dissolve the formazan crystals. The absorbance of each well was read at 490 nm on a microtiter plate ELISA reader. The mean values were obtained from a minimum of three parallel experiments. IC50 values were calculated.

HCT116 = test: MTT cell proliferation assay, HCT116; type: cell-based, human; details: Homo sapiens, HCT-116, HCT116 colon cancer, 48 h
Description: as §1, §2, §3

## CC(C)CC(NC(=O)c1ccc2c(c1[N+](=O)[O-])C(=O)c1ccccc1C2=O)C(=O)O (centres unmarked) [Compound 8a, N-[(9,10-dihydro-1-nitro-9,10-dioxo-2-anthracenyl)carbonyl-leucine]]
Bcl-2, Bcl-xL and Bax; 0, 10, 20, 40 μg/mL, 24 h
  Bax expression: increased
  levels of Bcl-2 and Bcl-xL: gradually decreased
Bcl-2, Bcl-xL and Bax; with increasing 8a concentration
  phosphorylation levels of Bcl-2 and Bcl-xL: increased
EC9708
  IC50: 44 ± 0.61 µg/mL (≈ 107 µM)
HCT116
  IC50: 17.8 ± 0.03 µg/mL (≈ 43.4 µM)
